Results on three compounds are retold here after patent publication US20240299400A1, “Transcription Factor GLI1 Inhibitors and Uses Thereof” (University of Connecticut, priority 2023, published 2024).

In assay [1] the target is T1, IGF1R (Homo sapiens, UniProt P08069).
T1 construct: purchased ThermoFisher Scientific (Madison, WI, USA), contract service
Briefly: ZLyte kinase assay, IGF1R. As to conditions: average of three replicates. It counts as biochemical. The method, then:
(§1) Kinase screening experiments. Kinase inhibition/binding experiments were performed by ThermoFisher Scientific (Madison, WI, USA) as a contract service, utilizing their default protocols [G. Yernale, A comprehensive review on the biological interest of quinoline and its derivatives. Bioorg. Med. Chem. 32 (2021) 115973]. Briefly, for ZLyte assay, compound in DMSO (100 nL), kinase buffer (2.4 μL), peptide/kinase mixture (5 μL), and ATP solution (2.5 μL) were mixed in a black 384-well plate. Following a 30 s plate shake to mix reagents, the kinase assay mixture was incubated at RT for 60 min. Following addition of the development reagent solution to each well, another 60 min incubation was performed at RT for reaction development. Fluorescent signal was recorded and subsequently analyzed.

Assay [2] deals with DAOY (MB). In words: MTS anti-proliferative assay in DAOY cells. In kind it is cell-based. As to conditions: Homo sapiens, Daoy; Table 8, 48 h, mean ± SEM.
For assay [3], the target named is T2, RPS6KB1 (Homo sapiens, UniProt P23443).
T2 construct: purchased ThermoFisher Scientific (Madison, WI, USA), contract service
In words: ZLyte kinase assay, RPS6KB1. In kind it is biochemical. As to conditions: average of three replicates. The protocol:
as §1

Assay [4] has as its target T3, DYRK2 (Homo sapiens, UniProt Q92630).
T3 construct: purchased ThermoFisher Scientific (Madison, WI, USA), contract service
T3 sequence (Q92630 1-601): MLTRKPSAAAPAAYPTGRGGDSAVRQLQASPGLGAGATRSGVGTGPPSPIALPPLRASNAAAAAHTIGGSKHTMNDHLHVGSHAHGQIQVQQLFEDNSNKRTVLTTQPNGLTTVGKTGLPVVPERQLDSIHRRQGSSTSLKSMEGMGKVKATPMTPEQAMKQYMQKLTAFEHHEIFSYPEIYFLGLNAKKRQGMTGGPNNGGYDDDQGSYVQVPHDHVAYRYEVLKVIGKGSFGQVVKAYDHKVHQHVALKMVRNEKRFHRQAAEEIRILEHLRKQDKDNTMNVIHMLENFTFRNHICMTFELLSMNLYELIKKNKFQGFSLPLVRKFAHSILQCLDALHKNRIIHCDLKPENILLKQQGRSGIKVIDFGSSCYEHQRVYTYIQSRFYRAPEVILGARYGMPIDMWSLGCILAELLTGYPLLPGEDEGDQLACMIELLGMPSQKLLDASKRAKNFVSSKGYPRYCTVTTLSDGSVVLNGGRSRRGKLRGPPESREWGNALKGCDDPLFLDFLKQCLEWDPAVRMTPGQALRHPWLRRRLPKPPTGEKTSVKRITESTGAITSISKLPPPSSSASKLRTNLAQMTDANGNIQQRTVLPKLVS
In words: LanthaScreen binding assay, DYRK2. Particulars: average of three replicates, read-out: % inhibition of the kinase DYRK2. The protocol: as §1
For the LanthaScreen Binding assay, compounds in DMSO (160 nL), kinase buffer (3.84 μL), kinase/antibody mixture (8.0 μL), and tracer (4.0 μL) were mixed in a white 384-well plate. Following a 30 s plate shake to mix the reagents, the kinase assay mixture was incubated at RT for 60 min. Fluorescent signals were recorded and subsequently analyzed.
(In TR-FRET formats the signal depends on donor and acceptor labels being close together.)

The target of assay [5] is T4, GLI1-ZFD (Homo sapiens, UniProt P08151).
T4 construct: GLI1-ZFD Expression and Purification; made in house
T4 sequence (P08151 234-388 limits assumed): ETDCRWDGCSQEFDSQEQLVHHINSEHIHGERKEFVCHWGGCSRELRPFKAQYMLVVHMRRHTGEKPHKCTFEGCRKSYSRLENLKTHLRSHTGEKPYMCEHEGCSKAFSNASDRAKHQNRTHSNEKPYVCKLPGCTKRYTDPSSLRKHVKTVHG
In words: Microscale thermophoresis (MST) binding to GLI1-ZFD. Put shortly:
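RED-NHS–labeled recombinant GLI1 zinc-finger domain (200 nM) was mixed with compound dilutions (DMSO<5%) in 50 mM HEPES pH 8.3, 100 mM NaCl. Binding was read by microscale thermophoresis on a Monolith NT.115.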
For orientation: MST reads how a fluorescent partner responds to local heating, with and without ligand.

Assay [6] has as its target T5, PRKACA (Homo sapiens, UniProt P17612).
T5 construct: purchased ThermoFisher Scientific (Madison, WI, USA), contract service
Briefly: ZLyte kinase assay, PRKACA. It counts as biochemical. As to conditions: average of three replicates. The method, then: as §1

In assay [7] the target is T6, CSNK1A1 (Homo sapiens, UniProt P48729).
T6 construct: purchased ThermoFisher Scientific (Madison, WI, USA), contract service
In words: ZLyte kinase assay, CSNK1A1. It counts as biochemical. Particulars: average of three replicates. The protocol:
as §1

In assay [8] the test system is PANC-1 (pancreatic). In words: MTS anti-proliferative assay in PANC-1 cells. It counts as cell-based. Particulars: Homo sapiens, PANC-1; Table 8, 48 h, mean ± SEM.
Assay [9] has as its target T7, MET (Homo sapiens, UniProt P08581).
T7 construct: purchased ThermoFisher Scientific (Madison, WI, USA), contract service
In words: ZLyte kinase assay, MET. It counts as biochemical. Particulars: average of three replicates. The protocol:
as §1

The target of assay [10] is T8, DYRKIA (Homo sapiens, UniProt Q13627).
T8 construct: purchased ThermoFisher Scientific (Madison, WI, USA), contract service
Briefly: ZLyte kinase assay, DYRKIA. It counts as biochemical. As to conditions: average of three replicates. The protocol:
as §1

The target in assay [11] is T9, AKT1 (Homo sapiens, UniProt P31749).
T9 construct: purchased ThermoFisher Scientific (Madison, WI, USA), contract service
Briefly: ZLyte kinase assay, AKT1. It counts as biochemical. Particulars: average of three replicates. The protocol: as §1

The target in assay [12] is T10, CSNK2A1 (Homo sapiens, UniProt P68400).
T10 construct: purchased ThermoFisher Scientific (Madison, WI, USA), contract service
In words: ZLyte kinase assay, CSNK2A1. In kind it is biochemical. Particulars: average of three replicates. The method, then: as §1

Assay [13] concerns the target T11, MAP2K1 (Homo sapiens, UniProt Q02750).
T11 construct: purchased ThermoFisher Scientific (Madison, WI, USA), contract service
In words: ZLyte kinase assay, MAP2K1. It counts as biochemical. As to conditions: average of three replicates. The method, then:
as §1

T1 sequence (P08069 31-1367): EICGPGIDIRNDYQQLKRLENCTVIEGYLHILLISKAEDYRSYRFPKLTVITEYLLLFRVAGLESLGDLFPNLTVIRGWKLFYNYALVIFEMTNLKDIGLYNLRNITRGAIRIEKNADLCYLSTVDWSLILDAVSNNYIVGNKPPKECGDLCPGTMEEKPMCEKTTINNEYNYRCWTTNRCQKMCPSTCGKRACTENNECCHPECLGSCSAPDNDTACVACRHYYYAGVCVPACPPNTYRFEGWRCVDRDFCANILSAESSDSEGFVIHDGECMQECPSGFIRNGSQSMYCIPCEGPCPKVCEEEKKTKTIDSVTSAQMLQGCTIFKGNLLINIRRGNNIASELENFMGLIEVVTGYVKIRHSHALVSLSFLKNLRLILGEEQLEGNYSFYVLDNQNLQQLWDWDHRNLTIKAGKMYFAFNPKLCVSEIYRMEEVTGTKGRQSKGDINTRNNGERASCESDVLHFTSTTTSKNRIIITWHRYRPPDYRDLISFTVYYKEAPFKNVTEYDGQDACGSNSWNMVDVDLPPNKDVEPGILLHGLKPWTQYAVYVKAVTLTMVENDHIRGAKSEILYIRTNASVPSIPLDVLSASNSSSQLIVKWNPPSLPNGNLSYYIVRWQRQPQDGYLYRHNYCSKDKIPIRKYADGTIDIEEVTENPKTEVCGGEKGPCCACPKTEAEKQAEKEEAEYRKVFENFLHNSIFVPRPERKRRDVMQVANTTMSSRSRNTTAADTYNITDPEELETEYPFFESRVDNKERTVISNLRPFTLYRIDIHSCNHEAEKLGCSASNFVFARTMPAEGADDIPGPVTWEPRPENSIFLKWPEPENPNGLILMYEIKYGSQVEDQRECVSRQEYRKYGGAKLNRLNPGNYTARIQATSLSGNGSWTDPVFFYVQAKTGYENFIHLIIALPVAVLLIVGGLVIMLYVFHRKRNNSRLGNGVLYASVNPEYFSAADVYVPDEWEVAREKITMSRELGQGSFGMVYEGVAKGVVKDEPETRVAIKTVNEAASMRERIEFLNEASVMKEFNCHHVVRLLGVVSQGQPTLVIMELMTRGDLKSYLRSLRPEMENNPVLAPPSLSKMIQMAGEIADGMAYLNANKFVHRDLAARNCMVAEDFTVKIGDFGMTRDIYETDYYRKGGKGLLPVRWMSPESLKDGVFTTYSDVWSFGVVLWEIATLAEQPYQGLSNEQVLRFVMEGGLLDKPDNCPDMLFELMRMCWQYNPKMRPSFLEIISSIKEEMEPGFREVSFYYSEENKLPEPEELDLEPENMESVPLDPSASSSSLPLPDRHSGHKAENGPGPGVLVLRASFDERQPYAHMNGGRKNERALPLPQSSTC
T9 sequence (P31749 whole entry): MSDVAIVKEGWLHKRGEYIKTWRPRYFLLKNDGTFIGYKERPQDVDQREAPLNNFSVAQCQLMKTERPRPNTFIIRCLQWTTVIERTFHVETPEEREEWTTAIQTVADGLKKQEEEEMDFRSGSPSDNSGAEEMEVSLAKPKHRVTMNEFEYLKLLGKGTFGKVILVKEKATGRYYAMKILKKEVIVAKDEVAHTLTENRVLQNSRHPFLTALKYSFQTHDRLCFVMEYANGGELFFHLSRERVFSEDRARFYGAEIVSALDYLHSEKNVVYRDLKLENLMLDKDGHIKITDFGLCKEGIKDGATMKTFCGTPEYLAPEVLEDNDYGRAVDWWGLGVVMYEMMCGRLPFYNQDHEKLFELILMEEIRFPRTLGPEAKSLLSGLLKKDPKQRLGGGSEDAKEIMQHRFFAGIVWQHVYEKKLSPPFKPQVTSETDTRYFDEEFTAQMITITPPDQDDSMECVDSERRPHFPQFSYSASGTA
T6 sequence (P48729 whole entry): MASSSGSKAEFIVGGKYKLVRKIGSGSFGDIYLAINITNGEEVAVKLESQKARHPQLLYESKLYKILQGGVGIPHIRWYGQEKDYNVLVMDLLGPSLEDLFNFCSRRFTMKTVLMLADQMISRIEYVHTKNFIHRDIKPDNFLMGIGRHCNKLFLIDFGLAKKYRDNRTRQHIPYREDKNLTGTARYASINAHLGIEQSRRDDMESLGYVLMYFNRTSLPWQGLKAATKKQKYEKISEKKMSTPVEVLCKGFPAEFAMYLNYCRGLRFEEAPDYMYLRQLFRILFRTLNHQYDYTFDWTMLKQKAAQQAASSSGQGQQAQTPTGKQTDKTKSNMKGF
T11 sequence (Q02750 whole entry): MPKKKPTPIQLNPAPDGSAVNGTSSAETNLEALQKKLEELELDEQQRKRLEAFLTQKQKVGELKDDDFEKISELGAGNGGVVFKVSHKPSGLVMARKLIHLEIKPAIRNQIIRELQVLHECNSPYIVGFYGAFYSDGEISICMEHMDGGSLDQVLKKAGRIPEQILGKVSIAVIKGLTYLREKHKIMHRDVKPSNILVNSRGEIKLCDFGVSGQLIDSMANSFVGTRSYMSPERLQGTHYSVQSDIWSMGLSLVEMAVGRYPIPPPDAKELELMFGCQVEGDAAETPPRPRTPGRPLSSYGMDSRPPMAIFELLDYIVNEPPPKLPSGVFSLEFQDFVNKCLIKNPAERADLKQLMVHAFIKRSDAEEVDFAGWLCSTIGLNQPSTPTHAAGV
T10 sequence (P68400 whole entry): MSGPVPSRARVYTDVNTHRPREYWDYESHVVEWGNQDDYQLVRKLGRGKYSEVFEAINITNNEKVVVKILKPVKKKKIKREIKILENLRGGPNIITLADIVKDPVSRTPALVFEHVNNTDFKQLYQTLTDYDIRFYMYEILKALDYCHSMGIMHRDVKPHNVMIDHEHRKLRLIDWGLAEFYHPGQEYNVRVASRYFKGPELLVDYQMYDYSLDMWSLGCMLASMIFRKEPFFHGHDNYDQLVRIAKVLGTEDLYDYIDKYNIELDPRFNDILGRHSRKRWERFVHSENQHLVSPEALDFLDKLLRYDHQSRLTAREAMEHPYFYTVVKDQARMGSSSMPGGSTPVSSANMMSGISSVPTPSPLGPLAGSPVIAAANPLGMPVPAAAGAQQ
T2 sequence (P23443 whole entry): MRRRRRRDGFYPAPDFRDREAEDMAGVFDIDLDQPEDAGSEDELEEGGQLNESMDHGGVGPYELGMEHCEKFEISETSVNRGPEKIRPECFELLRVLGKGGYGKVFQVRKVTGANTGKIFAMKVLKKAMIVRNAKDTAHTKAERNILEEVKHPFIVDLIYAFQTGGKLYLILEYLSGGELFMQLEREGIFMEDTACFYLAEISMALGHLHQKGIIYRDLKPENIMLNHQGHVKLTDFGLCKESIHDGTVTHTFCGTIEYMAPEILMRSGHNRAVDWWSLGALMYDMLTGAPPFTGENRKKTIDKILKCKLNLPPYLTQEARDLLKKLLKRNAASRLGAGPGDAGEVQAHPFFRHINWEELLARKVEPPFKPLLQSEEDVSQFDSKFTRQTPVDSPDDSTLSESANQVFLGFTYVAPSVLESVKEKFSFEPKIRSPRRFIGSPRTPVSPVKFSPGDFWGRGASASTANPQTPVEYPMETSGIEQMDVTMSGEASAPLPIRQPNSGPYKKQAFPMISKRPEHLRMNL
T7 sequence (P08581 25-1390): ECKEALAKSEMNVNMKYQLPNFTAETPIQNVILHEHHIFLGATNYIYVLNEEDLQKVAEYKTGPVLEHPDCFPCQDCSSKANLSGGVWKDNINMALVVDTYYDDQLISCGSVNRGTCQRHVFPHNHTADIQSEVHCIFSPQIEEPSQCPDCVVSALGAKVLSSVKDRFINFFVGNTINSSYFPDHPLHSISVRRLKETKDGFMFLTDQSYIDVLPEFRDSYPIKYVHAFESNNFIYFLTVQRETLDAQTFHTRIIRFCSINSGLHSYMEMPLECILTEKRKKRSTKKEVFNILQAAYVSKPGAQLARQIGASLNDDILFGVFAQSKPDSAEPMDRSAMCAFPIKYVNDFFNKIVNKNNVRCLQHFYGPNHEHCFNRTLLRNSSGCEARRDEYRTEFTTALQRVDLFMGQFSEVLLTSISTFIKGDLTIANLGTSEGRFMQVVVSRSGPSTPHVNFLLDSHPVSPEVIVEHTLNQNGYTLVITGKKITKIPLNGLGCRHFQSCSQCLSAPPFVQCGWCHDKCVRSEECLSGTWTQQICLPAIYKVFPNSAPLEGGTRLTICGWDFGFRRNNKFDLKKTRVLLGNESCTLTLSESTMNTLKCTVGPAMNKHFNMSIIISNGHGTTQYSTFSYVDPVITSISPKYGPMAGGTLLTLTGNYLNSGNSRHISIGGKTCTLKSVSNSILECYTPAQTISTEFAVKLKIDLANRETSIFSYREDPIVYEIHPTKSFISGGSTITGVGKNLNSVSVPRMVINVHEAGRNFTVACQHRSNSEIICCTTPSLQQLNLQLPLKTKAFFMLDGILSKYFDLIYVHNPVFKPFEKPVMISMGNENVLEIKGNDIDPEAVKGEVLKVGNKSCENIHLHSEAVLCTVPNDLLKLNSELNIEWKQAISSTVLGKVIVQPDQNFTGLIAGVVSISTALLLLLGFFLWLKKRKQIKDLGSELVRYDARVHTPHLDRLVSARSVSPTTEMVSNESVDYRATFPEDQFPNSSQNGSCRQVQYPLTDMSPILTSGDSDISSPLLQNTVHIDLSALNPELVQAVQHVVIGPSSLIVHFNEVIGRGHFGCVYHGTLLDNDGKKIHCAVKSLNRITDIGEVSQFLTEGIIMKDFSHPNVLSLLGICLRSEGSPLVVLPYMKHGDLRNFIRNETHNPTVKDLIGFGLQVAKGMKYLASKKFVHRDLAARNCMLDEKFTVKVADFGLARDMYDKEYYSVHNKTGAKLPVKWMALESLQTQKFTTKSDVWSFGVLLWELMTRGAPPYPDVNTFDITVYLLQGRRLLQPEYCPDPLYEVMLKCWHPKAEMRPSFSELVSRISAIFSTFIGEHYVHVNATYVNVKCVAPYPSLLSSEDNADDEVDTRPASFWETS

One may read the inhibition as the change of the read-out against control, counted positive when it falls. The GI50 is the concentration at which growth is held to half of that of the control. The low end stands for greater sensitivity of the cells, the high end for lower sensitivity of the cells. One may read the Kd as the free concentration of one partner at which half of the binding sites on the other are occupied at equilibrium, for simple one-to-one binding. Read a low Kd as higher affinity. On to `Cc1ccc2ccc(C(Nc3ccccn3)c3ccncc3)c(O)c2n1` (stereo not shown) [Compound 39, 7-((Pyridin-4-yl)(pyridin-2-ylamino)methyl)-2-methylquinolin-8-ol], for which the inhibition at 1 µM in assay [1] is 12%; in [3], 0%; in [4], -4%; in assay [6], 6%; in assay [7], 3%; in assay [9], 4%. Besides, the inhibition at 1 µM in [10] was determined as 6%; in [11] it was 7%; in [12], 2%; in [13], 14%. In addition, the figures for the GI50 in assay [2] and in assay [8] were 1.2 ± 0.2 µM and 0.83 ± 0.1 µM, respectively. In assay [5] (Table 7, Ave ± SEM), the Kd was found to be 9.1 ± 1.5 µM.
With `Cc1ccc2ccc(C(Nc3ccccn3)c3ccc(N4CCCC4=O)cc3)c(O)c2n1` (stereo not shown) [Compound 48, 7-((4-(2-Oxopyrrolidin-1-yl)phenyl)(pyridin-2-ylamino)methyl)-2-methylquinolin-8-ol], the inhibition at 1 µM in assay [1] was 9%; in assay [3], -1%; in [4], -1%; in [6] it was 7%; in assay [7] it was 6%; in [9] it was 4%. Besides, the inhibition at 1 µM worked out at 4% in assay [10], 10% in [11], 2% in [12] and 14% in assay [13]. Besides, the GI50 in assay [2] is 25 ± 2.3 µM; in [8] it was 23.2 ± 4.3 µM. This compound gave a Kd in assay [5] (Table 7, Ave ± SEM) of 8 ± 3.1 µM.
For the compound `CCN(CC)c1ccc(C(Nc2ccccn2)c2ccc3ccc(C)nc3c2OC)cc1` (stereo not shown) [Compound 20, N-((4-Diethylaminophenyl)(8-methoxy-2-methylquinolin-7-yl)methyl)pyridin-2-amine], the inhibition at 1 µM in [1] was 9%; in assay [3], -2%; in [4], -2%; in assay [6], 4%; in assay [7], 4%; in [9], 5%. For the same compound, the inhibition at 1 µM in assay [10] was 4%; in assay [11], 4%; in [12], 5%; in assay [13], 7%. Further, the GI50 in assay [2] and in assay [8] was greater than 100 µM each time. Besides, the “binding to GLI1 (in words)” value in assay [5] (MST binding assay) is “does not bind to GLI1”. The compound also showed a Kd in assay [5] (Table 5, Ave ± SEM) greater than 125 µM.
